Source: article PMC10630888, “Nuclear ERK1/2 signaling potentiation enhances neuroprotection and cognition via Importinα1/KPNA2” (EMBO Molecular Medicine, 2023)

Assays:
[1] = test system: p44 ERK1 and p42 ERK2; test: Western blot of pERK1/2 and total ERK1/2 in HEK293 cells; format: cell-based; conditions: serum-starved HEK 293 cells, 50 μM, 15 min
Protocol: For Western blot and immunofluorescence analysis, 0.6 × 10^6 HEK293 cells were seeded in 6‐well plates in the presence of DMEM High Glucose GlutaMax (Thermo Fisher Scientific) containing 10% Foetal Bovine Serum (FBS, Thermo Fisher Scientific) and 100 U/ml penicillin/streptomycin (Thermo Fisher Scientific). For Western blot analysis to assess ERK1/2 and phospho‐ERK1/2 levels, cells were serum starved for 24 h and incubated with RB5 50 μM or FBS 20% for 15 min at 37°C. To assess JNK and phospho‐JNK levels, cells were incubated with RB5 50 μM or anisomycin 5 μM for 30 min at 37°C. For immunofluorescence analysis, cells were serum‐starved for 24 h and incubated with 50 μM RB5 or 20% FBS for 15 min at 37°C.
Cells were collected in ice‐cold lysis buffer (20 mM Tris HCl pH 7.5, 150 mM NaCl, 1% Triton, 1 mM EDTA, complete EDTA‐free protease inhibitor cocktail (Roche), 1 mM sodium orthovanadate, 1 mM sodium fluoride, 1 mM b‐glycerophosphate). Protein concentration was determined with the Biorad DC protein assay. Equal amounts of proteins ([…]) were boiled in sample buffer, separated by SDS‐PAGE, and transferred to nitrocellulose membranes (Amersham). […]

[2] = test system: SC-CA1 synapses, CA1 pyramidal neurons; test: Whole-cell patch clamp, EPSCs at SC-CA1 synapses in hippocampal slices; format: cell-based, rat; conditions: peptide 50 μM in intracellular solution, 30–35 min, mean, RB5 n = 12 cells, Scr n = 8 cells, 4 animals
[3] = test system: corticostriatal synapses on dSPNs; test: Patch clamp, HFS-LTD at corticostriatal synapses on dSPNs; format: cell-based, mouse; conditions: peptide 50 μM intracellularly, mean, RB5 n = 7 cells, Scr n = 5 cells
Protocol: Brain slices containing both the striatum and the cortex were prepared as described (Trusel et al, [2015]). Mice were anesthetized by isoflurane and decapitated, and their brains were rapidly transferred to ice‐cold dissecting aCSF containing (in mM): 110 Choline‐Cl, 2.5 KCl, 1.25 NaH2PO4, 7 MgCl26H2O, 0.5 CaCl2, 25 NaHCO3, 25 D‐glucose, 11.6 ascorbic acid, saturated with 95% O2 and 5% CO2. Horizontal corticostriatal slices (270 μm thick; patch‐clamp recordings) were cut in the dissecting aCSF using a Vibratome 1000S slicer (Leica, Italy), then transferred to normal aCSF containing (in mM): 115 NaCl, 3.5 KCl, 1.2 NaH2PO4, 1.3 MgCl26H2O, 2 CaCl2, 25 NaHCO3, and 25 D‐glucose and aerated with 95% O2 and 5% CO2. Following 20 min of incubation at 32°C, slices were kept at RT. During experiments, slices were continuously perfused with aCFS at a rate of 2 ml/min at 28°C. […]
SPNs were clamped at a holding membrane potential of −80 mV. […] Series resistance (range 15–25 MW) was monitored at regular intervals throughout the recording and presented minimal variations (≤20%) in the analyzed cells. […]
The occurrence and magnitude of synaptic plasticity was evaluated by comparing the normalized EPSP amplitudes from the last 5 min of baseline recordings with the corresponding values at 20–30 min after HFS (HFS‐LTD). […]

| Substance | p44/p42 protein levels (Western blot) [1] | p44 ERK1 and p42 ERK2 phosphorylation (Western blot) [1] | Average EPSC amplitude over last 5 min of recording, normalized to first minute [2] | Average EPSC amplitude over last 5 min of recording, normalized to first minute ([2]; listed as Scr) | Normalized EPSP amplitude after HFS (20–30 min) versus baseline ([3]; listed as Scr) | Normalized EPSP amplitude after HFS (20–30 min) versus baseline ([3]; listed as control peptide) |
| --- | --- | --- | --- | --- | --- | --- |
| GRKKRRQRRRPPQGGGGGEPRRTEGVGPGVPGEVEMVKGQPFDV [RB5, six D-amino acids, acetylated N-terminus] | without affecting p44/p42 protein levels | sustained a strong p44 ERK1 and p42 ERK2 phosphorylation | – | – | – | – |
| SCR: ineffective Scramble version of RB5 containing a TAT sequence (GRKKRRQRRRPPRVGPGVPEGVGVAVFGVKEPGQTGDVGPVGE) [reference compound] | – | – | had no effect | 0.9389 | 76.7653 | had no effect on plasticity induction |
